Measured values taken from patent publication US20110283604A1, “BIODEGRADATION OF RENEWABLE HYDROCARBON FUEL BLENDS” (BUTAMAX(TM) ADVANCED BIOFUELS LLC, priority 2010, published 2011).

Columns and labels:
[1] = tested on: soil-groundwater slurries; test: Aerobic microcosm biodegradation of BTEX, isobutanol and ethanol
Method: Soil and groundwater for laboratory microcosm testing were collected from within Site 60 at Vandenberg Air Force Base, CA. The site has a history of gasoline contamination, but has undergone an extensive cleanup program. Collected groundwater was containerized in sterile stainless steel soda kegs (18.5 L) under nitrogen headspace. […] The core samples in acetate sleeves were capped and sealed in the field to minimize exposure to air, shipped overnight on ice to the laboratory, and stored at 4° C.
Soil was removed from the acetate sleeves in an anaerobic chamber (Coy Laboratory Products, Inc., Grass Lake, Mich.) and the first 10 cm of the core ends that may have been exposed to oxygen were discarded. Collected soil consisted of silty sand with some gravel and larger stones. The soil was passed through a 0.95 cm sieve, homogenized, and then stored in amber glass jars with Teflon®-lined caps at 4° C. until microcosm setup was complete. (NA=Not Analyzed; * SVOC (semi volatile organic compound) detections include 0.008 mg L^−1 phenol and 0.003 mg L^−1 bis(2-ethylhexyl) phthalate; ** standard units).
Final transformation products were not determined. For comparison, one treatment was prepared using ethanol instead of isobutanol. […] Controls were amended with mercuric chloride and formaldehyde. BTEX and alcohol concentrations were selected to represent (approximately) potential groundwater concentrations that would be observed within a source area and in the near downgradient plume. The greater ethanol concentrations relative to the isobutanol concentrations used in this study were intended to reflect effective solubilities of isobutanol and ethanol in groundwater. […] The SET 1 treatments were prepared within 4 days of sample collection whereas SET 2 treatments were prepared after approximately 2 months of soil and groundwater storage.
Microcosms were prepared by placing 40 g of site soil into each of 54 glass serum bottles (approximate volume 160 mL each). BTEX and alcohol (isobutanol or ethanol) were added to the treatment bottles to attain the target concentrations shown in Tables 2A and B. Bottles were filled with groundwater so as to leave 10 mL of headspace. Controls were amended with mercuric chloride (700 mg/L in bottles) to inhibit microbial activity. Controls were subsequently amended with formaldehyde (1% v/v in bottles) after 4 days to limit microbial activity. Treatments were prepared with a minimum of 3 and up to 8 replicates each.
The prepared microcosms were incubated at 15° C. on a rotary shaker operating at 100 rpm. Headspace in each of the bottles was monitored for BTEX and oxygen. Aqueous BTEX concentrations were calculated by applying Henry's Law. Samples of the aqueous phase were analyzed for isobutanol and ethanol, as well as potential isobutanol degradation products (iso-butylaldehyde and iso-butyric acid). The headspace of each bottle was periodically flushed with oxygen gas to maintain aerobic conditions in the bottles. The headspace of each control bottle also was flushed with oxygen to evaluate potential losses of BTEX due to the flushing process.
Headspace gases were analyzed for BTEX by using a Varian CP-3900 gas chromatograph equipped with an FID and a Restek QSPLOT column (30 m length, 0.32 mm diameter) with an injector temperature of 260° C. and a detector temperature of 290° C. Headspace oxygen was analyzed by using a Varian CP-3800 gas chromatograph equipped with a Pulsed Discharge Helium Ionization Detector (PDHID) and both a CP-Molsiene 5A column and a CP-ParaBond Q column (both 10 m length, 0.32 mm diameter), an injector temperature of 210° C., and a detector temperature of 240° C. […] Aqueous alcohol concentrations (as well as iso-butylaldehyde and iso-butyric acid) were measured by first collecting a 130 μL subsample preserved with mercuric chloride.

[2] = Water tolerance and phase separation tests on isobutanol-ethanol-gasoline blends; format: physicochemical; details: E10 gasoline
Method: Scoping water tolerance and phase separation tests were conducted on isobutanol-ethanol-gasoline blends at 65° F. […] Concentrations in both the hydrocarbon and aqueous phase were determined by GC.

[3] = Treatment 1 (Low BTEX), aerobic, 15° C.
[4] = Treatment 2 (High BTEX), aerobic
[5] = Treatment 3 (Low BTEX + IBA 68 μM), aerobic
[6] = Treatment 4 (High BTEX + IBA 3,400 μM), SET 1, aerobic
[7] = Treatment 5 (High BTEX + IBA 3,400 μM), SET 2, aerobic
[8] = Treatment 6 (High BTEX + Ethanol 11,000 μM), aerobic
[9] = higher concentration treatments, aerobic (isobutanol: data of Treatments 4 and 5; ethanol treatment)

Compound	Lag [1, 3]	Lag [1, 4]	Lag [1, 5]	Lag [1, 6]	Lag [1, 7]	Lag [1, 8]	observed first-order biodegradation rate constant [1, 9]	effect of increased levels on aqueous phase volume during phase separation ([2]; 1.3% and 2.6% water, FIG. 11)	effect on amount of ethanol extracted into the aqueous phase ([2]; FIG. 12)	rate constant in lower concentration treatment relative to isobutanol or ethanol in higher concentration treatments ([1]; Treatment 3 vs higher concentration treatments, aerobic)	observed first-order biodegradation rate constant ([1]; lower concentration treatment (Treatment 3), aerobic)
c1ccccc1 [Benzene, benzene]	0 days	6 days	0 days	1 days	1 days	1 days					
CCc1ccccc1 [Ethylbenzene, ethylbenzene]	2 days	5 days	1 days	0 days	1 days	1 days					
Cc1ccccc1 [Toluene, toluene]	0 days	5 days	0 days	5 days	1 days	1 days					
CCO [ethanol, reference compound]							0.074 ± 0.0023 day⁻¹				
CC(C)CO [isobutanol]							0.081 ± 0.0044 day⁻¹	reduced aqueous phase volume	acts as a co-solvent for ethanol	approximately 3.5 times	0.28 ± 0.054 day⁻¹
total xylenes	2 days	0 days	1 days	0 days	1 days	1 days					
